Laboratory results published in patent publication US12090132B2, “Tris DBA pharmaceutical composition and its use for treating autoimmune diseases” (National Defense Medical Center, priority 2019, dated 2024).
“Also recorded” adds a separate entry of the source.

Experiments:
[1] = test system: BMDM cells; assay: Mitochondrion ROS in mouse BMDM; type: cell-based; conditions: LPS 1 μg/mL 5.5 hours, ATP 30 minutes, FIGS. 6D-6E
Description: The generation of mitochondrion ROS in the mouse BMDM is tested by using mitosox principle. There are two experimental groups (treatment group Tris DBA, negative control group NAC), reacting with 1 μg/mL LPS and cells for 5.5 hours, treated with ATP for 30 minutes, treated with commercial reagent H2DCFDA for one hour, so as to evaluate the cellular infiltration fluorescence intensity.

[2] = test system: NF-κB; assay: NF-κB activation in J774A.1 cells; type: cell-based, mouse; conditions: FIG. 1I
[3] = test system: NLRP3 inflammasome; assay: NLRP3 inflammasome activation in LPS/ATP-treated J774A.1 cells (ELISA, Western Blot); type: cell-based, mouse
Description: Each group was treated with 0, 0.1, 0.5 and 1 μM Tris DBA culture medium for 30 minutes, reacting with 1 μg/ml lipopolysaccharide (LPS) of NLRP3 inflammasome typical activator for 5.5 hours. Finally, it reacted with 5 mM ATP reagent for 30 minutes, the IL-1β and caspase-1 cytokines were tested by ELISA.
The protein expression was analyzed by Western Blot, the cells and Tris DBA were cultured for 1 hour, and cultured with two groups with LPS or without LPS respectively for 5.5 hours to test the expression level of cytokines (NLRP3, caspase-1, pro-caspase-1, pro-IL-1β, pro-IL-1β) in cells. This step refers to the data from prior literature (Chang Y P, et. al. 2015. Resveratrol inhibits NLRP3 inflammasome activation by preserving mitochondrial integrity and augmenting autophagy.

[4] = test system: ASLN mouse kidney; assay: Protein expression in renal tissue of ASLN mouse; type: in vivo
Description: (§1) Improve mouse animal model of accelerated aggravated lupus nephritis8-week-old female mouse (NZB/WF1) model is used for experiment in this embodiment, the mice are randomly divided into two groups (treatment group Tris DBA, negative control group Katimin-1), 7 mice per group, the LPS (0.6 mg/kg) is injected into the abdominal cavity of mouse twice a week, the Tris DBA (30 mg/kg) or Katimin-1® is applied by intraperitoneal injection in one week after injection, the mice are sacrificed in Week 3 and Week 5 respectively.
The renal tissue is thoroughly mixed with RIPA lysis, the expression levels of proteins Atg5, LC3B, p62, NLRP3, caspase-1, IL-1β, p47phox, NQO1, pERK, pJNK and pp38 are tested by gel electrophoresis (SDS-page).

[5] = test system: ASLN mouse (NZB/WF1); assay: Urine protein and renal function in ASLN mouse model; type: in vivo; conditions: 30 mg/kg intraperitoneal
Description: as §1
The mouse urine is collected weekly, and the serum is collected when the mice are sacrificed in Week 3 and Week 5, the changes in three biochemical indexes, which are creatinine (Cr), BUN and albumin/creatinine ratio (ACR) in urine, are tested according to the operational manual of commercial reagent kit, so as to analyze the changes in renal function.

[6] = test system: ASLN mouse (NZB/WF1); assay: Renal pathology (PAM, IHC) and autoantibody in ASLN mouse model; type: in vivo
Description: as §1
When the mice are sacrificed in Week 3 and Week 5, the renal tissue is taken for analysis, the renal cortex tissue is stained by PAM to analyze the content of immunoglobulin G (IgG) and serum complement C3, and the content of F4/80+ macrophages and CD30+ T cells is analyzed by IHC, so as to detect specific antigen molecules in tissue slice and to perform positioning, qualitative and quantitative analyses.

[7] = test system: ASLN mouse (NZB/WF1); assay: ROS (superoxide anion) in urine, serum and renal tissue of ASLN mouse; type: in vivo; conditions: Week 3 and Week 5, versus Katimin-1 group
Description: as §1
The ASLN mouse urine, serum and renal tissue obtained in Embodiment 2.4 are used to test antioxidant activity. The ROS content is tested according to operational manual of commercial reagent kit, the fluorescence probe dihydroethidium (Dihydroethidium, DHE) reacts with mouse urine and serum. The experimental results are represented as RLU/15 min/ml; the renal tissue is represented as RLU/15 min/mg dry weight.

[8] = test system: autophagy factors Atg5, LC3BI/II, p62; assay: Autophagy factor expression in J774A.1 cells (Western Blot); type: cell-based, mouse; conditions: concentration-dependent
[9] = test system: ASLN mouse (NZB/WF1); assay: Renal pathology (PAM, IHC) and autoantibody in ASLN mouse model; type: in vivo; conditions: ASLN mouse kidney
[10] = test system: CD4 T cells of OVA-TCR transgenic mouse; assay: Antigen-specific T cell proliferation ([3H]-thymidine) and IFN-γ/IL-4, OVA-TCR CD4 T cells cultured with BMDCs; type: cell-based; conditions: FIG. 3L
Description: The CD4 T cells of OVA-TCR transgenic mouse and T cell proliferation of antigenic specificity are used to analyze the manifestation of dendritic cell antigen. The OVA323-339 peptide reacts with LPS and LPS+Tris DBA groups for 16 hours respectively. The CD4 T cells abstracted from OVA-TCR transgenic mouse are cultured with BMDCs as per ratios of 1:0, 1:1, 1:2 and 1:4, the T cell proliferation is determined by radioactive [3H]-thymidine, and the processed cell supernatant is used for testing the IFN-γ and IL-4 expression levels in Th1 and Th2 cells according to the operational manual of commercial reagent kit.

[11] = test system: ASLN mouse (NZB/WF1); assay: T cell subsets in ASLN mouse model (NZB/WF1); type: in vivo; conditions: Week 5, FIG. 3C
Description: as §1

[12] = test system: MAPK (pERK, pJNK, pp38); assay: Western Blot of MAPK phosphorylation in J774A.1 cells; type: cell-based, mouse

## O=C(/C=C/c1ccccc1)/C=C/c1ccccc1.O=C(/C=C/c1ccccc1)/C=C/c1ccccc1.O=C(/C=C/c1ccccc1)/C=C/c1ccccc1.[Pd].[Pd] [Tris DBA]
[1]
  generation of mitochondria ROS: can inhibit
[2]
  NF-κB activation: will not affect; also recorded: fails to inhibit
[3]; FIG. 1F
  NLRP3 protein expression level: can inhibit
[3]; FIG. 1G
  pro-IL-1β protein expression level: can inhibit
[3]; FIGS. 2J-2K
  expression level of IL-1β: can inhibit
[3]; Western Blot, FIG. 2B
  cytokines induced by LPS (IL-1β, caspase-1, pro-IL-1β) of cell supernatant: can inhibit
[3]; after treatment with ATP, FIG. 2A
  activation of NLRP3 inflammasome (IL-1β induced by LPS): inhibit
[4]; FIG. 5B
  NLRP3: inhibitory effect
[4]; FIG. 5C
  IL-1β: inhibitory effect
[4]; FIG. 5G
  Atg5: inhibitory effect
[4]; FIG. 5H
  LC3B I/II: inhibitory effect
[4]; FIG. 5J
  content of p47NADPH: can inhibit
[4]; FIG. 5K
  manifestation of NQO1: can promote
[4]; FIG. 5L
  activity of GPx: can enhance
[5]; favorable inhibitory effect in Week 3, FIG. 4A
  BUN: inhibits
[5]; favorable inhibitory effect in Week 3, FIG. 4B
  creatinine: inhibits
[5]; favorable inhibitory effect in Week 3, FIG. 4C
  urine ACR: inhibits
[6]; ASLN mouse kidney
  content of immunoglobulin G (IgG): can obviously inhibit
  content of serum complement C3: can obviously inhibit
[6]; ASLN mouse kidney, IHC
  content of F4/80+ macrophages: can obviously inhibit
[6]; ASLN mouse renal tissue, PAM stain, FIG. 4E
  glomerular cell proliferation: obviously inhibits
[6]; ASLN mouse renal tissue, PAM stain, FIG. 4F
  glomerular crescent structure proliferation: obviously inhibits
[6]; ASLN mouse renal tissue, PAM stain, FIG. 4G
  neutrophilic infiltration: obviously inhibits
[6]; ASLN mouse renal tissue, PAM stain, FIG. 4H
  fibrinoid necrosis: obviously inhibits
[6]; ASLN mouse renal tissue, PAM stain, FIG. 4I
  renal interstitial inflammation: obviously inhibits
[6]; ASLN mouse renal tissue, PAM stain, FIG. 4J
  glomerulonephritis: obviously inhibits
[6]; ASLN mouse, FIG. 4O
  anti-dsDNA autoantibody: inhibits
[7]; FIG. 6A
  expression level of superoxide anion, kidney: lower
[7]; FIG. 6B
  expression level of superoxide anion, serum: lower
[7]; FIG. 6C
  expression level of superoxide anion, urine: lower
[8]; FIG. 2C, 2E
  LC3BI/II expression level: promotes
[8]; FIG. 2C, 2F
  p62 expression level: promotes
[8]; FIG. 2C-2D
  Atg5 expression level: promotes
[9]
  content of CD3+T cells: can obviously inhibit
[10]
  proliferation of T cells: inhibit
[11]
  regulated T cells FoxP3+CD25+CD4+: will not inhibit; also recorded: significantly increase
[12]; FIG. 1A
  pERK expression level: can inhibit
[12]; FIG. 1B
  pJNK expression level: can inhibit
[12]; FIG. 1C
  pp38 expression level: can inhibit
